Measured values taken from patent US20260132132A1, “3A,4,5,6-TETRAHYDRO-1 H-PYRAZOLO[3,4-C]PYRIDIN-7(7AH)-ONE DERIVATIVES AS FACTOR XIIA INHIBITORS” (KALVISTA PHARMACEUTICALS LIMITED, priority 2022, published 2026).

What was measured:
[1] = target: T1, Human Factor XIIa (hFXIIa) (Homo sapiens, UniProt P00748); assay: Determination of Human Factor XIIa (hFXIIa) inhibition, fluorogenic substrate IC50 assay; format: biochemical; settings: fluorogenic substrate H-DPro-Phe-Arg-AFC at Km, 25° C., read-out: Human FXIIa IC50
T1 construct: purchased Enzyme Research Laboratories
T1 sequence (P00748 373-615 limits assumed): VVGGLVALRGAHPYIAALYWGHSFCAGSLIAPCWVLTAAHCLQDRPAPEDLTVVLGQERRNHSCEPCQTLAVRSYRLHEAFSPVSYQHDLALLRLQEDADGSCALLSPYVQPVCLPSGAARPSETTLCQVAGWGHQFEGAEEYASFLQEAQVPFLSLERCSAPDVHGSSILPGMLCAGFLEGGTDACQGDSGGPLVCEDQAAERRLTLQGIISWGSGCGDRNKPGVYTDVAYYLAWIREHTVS
T1 sequence (P00748 20-372 partner limits assumed): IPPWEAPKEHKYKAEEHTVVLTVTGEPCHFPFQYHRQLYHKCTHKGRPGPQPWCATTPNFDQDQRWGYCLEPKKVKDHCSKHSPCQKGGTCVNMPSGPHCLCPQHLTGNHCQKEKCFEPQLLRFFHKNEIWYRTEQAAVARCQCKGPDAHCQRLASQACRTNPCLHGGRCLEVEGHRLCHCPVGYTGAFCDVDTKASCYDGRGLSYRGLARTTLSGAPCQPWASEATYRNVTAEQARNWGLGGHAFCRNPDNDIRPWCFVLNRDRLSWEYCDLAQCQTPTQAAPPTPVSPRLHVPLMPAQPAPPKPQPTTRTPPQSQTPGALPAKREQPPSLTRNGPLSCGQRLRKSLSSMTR
Protocol: Determination of Human Factor XIIa (hFXIIa) inhibition
The Km for the cleavage of the substrate by hFXIIa was determined by standard transformation of the Michaelis-Menten equation, with subsequent inhibition assays performed at substrate Km concentration.

FXa = FXa (Homo sapiens, UniProt P00742); assay: Related protease inhibition: FXa, fluorogenic substrate; format: biochemical; settings: fluorogenic substrate at Km, 25° C.; H1-H3 = % activity at 40 μM
FXa, sequence (P00742 235-488 limits assumed): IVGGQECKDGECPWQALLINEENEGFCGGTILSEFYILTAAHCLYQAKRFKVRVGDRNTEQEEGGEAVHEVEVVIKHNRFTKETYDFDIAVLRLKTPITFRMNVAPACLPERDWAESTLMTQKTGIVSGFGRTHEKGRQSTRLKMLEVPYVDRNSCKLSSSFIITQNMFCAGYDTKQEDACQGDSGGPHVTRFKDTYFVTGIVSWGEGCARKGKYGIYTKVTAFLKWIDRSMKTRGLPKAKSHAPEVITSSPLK
FXa, sequence (P00742 41-179 partner limits assumed): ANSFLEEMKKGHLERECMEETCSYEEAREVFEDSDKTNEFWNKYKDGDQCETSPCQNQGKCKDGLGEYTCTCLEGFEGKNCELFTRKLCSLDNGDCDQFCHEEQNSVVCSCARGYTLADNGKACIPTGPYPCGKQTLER
Protocol: Human serine protease enzyme Plasma Kallikrein, KLK1, FXa, Plasmin, Thrombin and Trypsin were assayed for enzymatic activity using an appropriate fluorogenic substrate at Km concentration, FXIa at fixed substrate concentration of 100 μM and various concentrations of the test compound.

| Compound | IC50 [1] [nM] | IC50 (FXa) [nM] |
| --- | --- | --- |
| CCN1CCc2ccc(N3CCc4c(C(=O)NCc5cnccc5C)nn(-c5cccc(Cl)c5)c4C3=O)cc2C1 [Example 1140, 1-(3-chlorophenyl)-6-(2-ethyl-1,2,3,4-tetrahydroisoquinolin-7-yl)-N-((4-methylpyridin-3-yl)methyl)-7-oxo-4,5,6,7-tetrahydro-1H-pyrazolo[3,4-c]pyridine-3-carboxamide] | 10 to 100 | 3000 to 10000 |
| COc1cncc(CNC(=O)c2nn(-c3cccc(Cl)c3)c3c2CCN(c2ccc4c(c2)CN(CCO)CC4)C3=O)c1 [Example 1141, 1-(3-chlorophenyl)-6-(2-(2-hydroxyethyl)-1,2,3,4-tetrahydroisoquinolin-7-yl)-N-((5-methoxypyridin-3-yl)methyl)-7-oxo-4,5,6,7-tetrahydro-1H-pyrazolo[3,4-c]pyridine-3-carboxamide] | 10 to 100 | 3000 to 10000 |
| O=C(NCC1CC1(F)F)c1nn(-c2cccc(Cl)c2)c2c1CCN(c1ccc3c(c1)CN(CCO)CC3)C2=O (centres unmarked) [Example 1142, 1-(3-chlorophenyl)-N-((2,2-difluorocyclopropyl)methyl)-6-(2-(2-hydroxyethyl)-1,2,3,4-tetrahydroisoquinolin-7-yl)-7-oxo-4,5,6,7-tetrahydro-1H-pyrazolo[3,4-c]pyridine-3-carboxamide] | 100 to 300 | > 40000 |
| O=C(NCC1CC1)c1nn(-c2cccc(Cl)c2)c2c1CCN(c1ccc3c(c1)CN(CCO)CC31CC1)C2=O [Example 1143, 1-(3-chlorophenyl)-N-(cyclopropylmethyl)-6-(2′-(2-hydroxyethyl)-2′,3′-dihydro-1′H-spiro[cyclopropane-1,4′-isoquinolin]-7′-yl)-7-oxo-4,5,6,7-tetrahydro-1H-pyrazolo[3,4-c]pyridine-3-carboxamide] | 100 to 300 | 3000 to 10000 |
| Cc1ccncc1CNC(=O)c1nn(-c2cccc(Cl)c2)c2c1CCN(c1ccc3c(c1)CN(CCO)CC31CC1)C2=O [Example 1144, 1-(3-Chlorophenyl)-6-(2′-(2-hydroxyethyl)-2′,3′-dihydro-1′H-spiro[cyclopropane-1,4′-isoquinolin]-7′-yl)-N-((4-methylpyridin-3-yl)methyl)-7-oxo-4,5,6,7-tetrahydro-1H-pyrazolo[3,4-c]pyridine-3-carboxamide] | 10 to 100 | 1000 to 3000 |
| C[C@@H](NC(=O)c1nn(-c2cccc(Cl)c2)c2c1CCN(c1ccc3c(c1)CN(CCO)CC3)C2=O)c1cccnc1 [Example 1145, (R)-1-(3-chlorophenyl)-6-(2-(2-hydroxyethyl)-1,2,3,4-tetrahydroisoquinolin-7-yl)-7-oxo-N-(1-(pyridin-3-yl)ethyl)-4,5,6,7-tetrahydro-1H-pyrazolo[3,4-c]pyridine-3-carboxamide] | 100 to 300 | 10000 to 40000 |
| O=C(NCc1ccn(C2CC2)n1)c1nn(-c2cccc(Cl)c2)c2c1CCN(c1ccc3c(c1)CN(CCO)CC3)C2=O [Example 1146, 1-(3-chlorophenyl)-N-((1-cyclopropyl-1H-pyrazol-3-yl)methyl)-6-(2-(2-hydroxyethyl)-1,2,3,4-tetrahydroisoquinolin-7-yl)-7-oxo-4,5,6,7-tetrahydro-1H-pyrazolo[3,4-c]pyridine-3-carboxamide] | 10 to 100 | 10000 to 40000 |
| Cc1ccc(CNC(=O)c2nn(-c3cccc(Cl)c3)c3c2CCN(c2ccc4c(c2)CN(CCO)CC4)C3=O)cn1 [Example 1147, 1-(3-chlorophenyl)-6-(2-(2-hydroxyethyl)-1,2,3,4-tetrahydroisoquinolin-7-yl)-N-((6-methylpyridin-3-yl)methyl)-7-oxo-4,5,6,7-tetrahydro-1H-pyrazolo[3,4-c]pyridine-3-carboxamide] | 10 to 100 | 10000 to 40000 |
| Cc1ccncc1CNC(=O)c1nn(-c2cccc(Cl)c2)c2c1CCN(c1ccc3c(c1)CN(CCO)C[C@@H]3C)C2=O [Example 1148, (R)-1-(3-Chlorophenyl)-6-(2-(2-hydroxyethyl)-4-methyl-1,2,3,4-tetrahydroisoquinolin-7-yl)-N-((4-methylpyridin-3-yl)methyl)-7-oxo-4,5,6,7-tetrahydro-1H-pyrazolo[3,4-c]pyridine-3-carboxamide] | 100 to 300 | 10000 to 40000 |
| CCN1CCc2ccc(N3CCc4c(C(=O)NCc5cc(C6CC6)n[nH]5)nn(-c5cccc(Cl)c5)c4C3=O)cc2C1 [Example 1150, 1-(3-chlorophenyl)-N-((3-cyclopropyl-1H-pyrazol-5-yl)methyl)-6-(2-ethyl-1,2,3,4-tetrahydroisoquinolin-7-yl)-7-oxo-4,5,6,7-tetrahydro-1H-pyrazolo[3,4-c]pyridine-3-carboxamide] | 10 to 100 | 3000 to 10000 |
| O=C(NCc1ncco1)c1nn(-c2cccc(Cl)c2)c2c1CCN(c1ccc3c(c1)CN(CCO)CC3)C2=O [Example 1151, 1-(3-chlorophenyl)-6-(2-(2-hydroxyethyl)-1,2,3,4-tetrahydroisoquinolin-7-yl)-N-(oxazol-2-ylmethyl)-7-oxo-4,5,6,7-tetrahydro-1H-pyrazolo[3,4-c]pyridine-3-carboxamide] | 100 to 300 | 10000 to 40000 |
| C[C@H]1CN(CCO)Cc2cc(N3CCc4c(C(=O)NCC5CC5)nn(-c5cccc(Cl)c5)c4C3=O)ccc21 [Example 1152, (R)-1-(3-chlorophenyl)-N-(cyclopropylmethyl)-6-(2-(2-hydroxyethyl)-4-methyl-1,2,3,4-tetrahydroisoquinolin-7-yl)-7-oxo-4,5,6,7-tetrahydro-1H-pyrazolo[3,4-c]pyridine-3-carboxamide] | 300 to 1000 | > 40000 |
| CCN1Cc2cc(N3CCc4c(C(=O)NCC5CC5)nn(-c5cccc(Cl)c5)c4C3=O)ccc2[C@@H](C)C1 [Example 1153, (R)-1-(3-chlorophenyl)-N-(cyclopropylmethyl)-6-(2-ethyl-4-methyl-1,2,3,4-tetrahydroisoquinolin-7-yl)-7-oxo-4,5,6,7-tetrahydro-1H-pyrazolo[3,4-c]pyridine-3-carboxamide] | 300 to 1000 | 10000 to 40000 |
| O=C(NCc1cnccc1Cl)c1nn(-c2cccc(Cl)c2)c2c1CCN(c1ccc3c(c1)CN(CCO)CC3)C2=O [Example 1154, 1-(3-chlorophenyl)-N-((4-chloropyridin-3-yl)methyl)-6-(2-(2-hydroxyethyl)-1,2,3,4-tetrahydroisoquinolin-7-yl)-7-oxo-4,5,6,7-tetrahydro-1H-pyrazolo[3,4-c]pyridine-3-carboxamide] | 10 to 100 | 10000 to 40000 |
| Cn1cc(Cl)c(CNC(=O)c2nn(-c3cccc(Cl)c3)c3c2CCN(c2ccc4c(c2)CN(CCO)CC4)C3=O)n1 [Example 1155, N-((4-chloro-1-methyl-1H-pyrazol-3-yl)methyl)-1-(3-chlorophenyl)-6-(2-(2-hydroxyethyl)-1,2,3,4-tetrahydroisoquinolin-7-yl)-7-oxo-4,5,6,7-tetrahydro-1H-pyrazolo[3,4-c]pyridine-3-carboxamide] | 10 to 100 | 10000 to 40000 |
| COCc1cc(CNC(=O)c2nn(-c3cccc(Cl)c3)c3c2CCN(c2ccc4c(c2)CN(CCO)CC4)C3=O)[nH]n1 [Example 1156, 1-(3-chlorophenyl)-6-(2-(2-hydroxyethyl)-1,2,3,4-tetrahydroisoquinolin-7-yl)-N-((3-(methoxymethyl)-1H-pyrazol-5-yl)methyl)-7-oxo-4,5,6,7-tetrahydro-1H-pyrazolo[3,4-c]pyridine-3-carboxamide] | 100 to 300 | 10000 to 40000 |
| Cc1cn(C)nc1CNC(=O)c1nn(-c2cccc(Cl)c2)c2c1CCN(c1ccc3c(c1)CN(CCO)CC3)C2=O [Example 1157, 1-(3-chlorophenyl)-N-((1,4-dimethyl-1H-pyrazol-3-yl)methyl)-6-(2-(2-hydroxyethyl)-1,2,3,4-tetrahydroisoquinolin-7-yl)-7-oxo-4,5,6,7-tetrahydro-1H-pyrazolo[3,4-c]pyridine-3-carboxamide] | 10 to 100 | 10000 to 40000 |
| CCN1Cc2cc(N3CCc4c(C(=O)NCc5cnccc5C)nn(-c5cccc(Cl)c5)c4C3=O)ccc2[C@@H](C)C1 [Example 1158, (R)-1-(3-chlorophenyl)-6-(2-ethyl-4-methyl-1,2,3,4-tetrahydroisoquinolin-7-yl)-N-((4-methylpyridin-3-yl)methyl)-7-oxo-4,5,6,7-tetrahydro-1H-pyrazolo[3,4-c]pyridine-3-carboxamide] | 10 to 100 | 10000 to 40000 |
| Cc1ccncc1CNC(=O)c1nn(-c2cccc(Cl)c2)c2c1CCN(c1ccc3c(c1)C(=O)N(C)CC3)C2=O [Example 1159, 1-(3-Chlorophenyl)-6-(2-methyl-1-oxo-1,2,3,4-tetrahydroisoquinolin-7-yl)-N-((4-methylpyridin-3-yl)methyl)-7-oxo-4,5,6,7-tetrahydro-1H-pyrazolo[3,4-c]pyridine-3-carboxamide] | 10 to 100 | > 40000 |
